Tests used:
CHO-K1 cells = assay: Micronucleus assay (MNT) in vitro; assay type: cell-based; design: key: A: negative, putative negative (micronuclei detected beyond threshold of 60% cyctotoxicity); B: positive; conditions: 24 hrs treatment, 0.2 µM to 100 µM
Experimental: The in vitro MNT assay is performed in CHO-K1 cells due to their stable and welI-characterized karyotype, high sensitivity and suitability for a high content imaging approach. They have a basal spontaneous micronucleus frequency of 3-4%.
24 hrs after plating CHO-K1 cells are treated with test compounds for 24 hrs (in duplicates; fixed concentration ranges from 0.2 µM to 100 µM in 2-fold dilution steps). After a medium change cells are incubated for 24 hrs with Cytochalasin B to block cytokinesis and are then fixed and nuclei / micronuclei visualized with a DNA stain. Images are acquired with the Molecular Devices high content imagers IXU or IXM and are analyzed with the dedicated MetaXpress software micronucleus module. Criteria for scoring of micronuclei (MN) are the following: • diameter of the MN should be less than ⅓ of the main nucleus • MN should be separated from or marginally overlap with main nucleus (= no blebs) • MN should have similar staining as the main nucleus At least 1000 binucleated cells are evaluated per treatment replicate. Mitomycin C is used as reference stimulator of micronucleus formation. Cytotoxicity is evaluated in parallel and defined by comparing total nuclei count in compound-treated samples to neutral control samples treated with vehicle only (1% DMSO) (100% cytotoxicity means all cells are dead or lost).
A test compound is regarded as POSITIVE if generation of micronuclei and exhibition of less than 60% cytotoxicity at the same concentration can be observed.
Compounds are scored only in the soluble concentration range. Experimental data of the compounds shown in Table 1 in the MNT assay are shown in Table 2 below and classified in the following groups: […]

human rec ACSS2 = target: T1, human rec ACSS2 (Homo sapiens, UniProt Q9NR19); assay: Biochemical activity ACSS2 assay (AMP-Glo); conditions: human recombinant ACSS2, AMP-Glo, 180 min at 37° C.
T1 construct: myc (C); purchased Origene
Summary of the method: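 C-terminal myc-tagged human recombinant ACSS2 (1 nM) reacted with 100 µM ATP, 100 µM CoA and 500 µM acetate (final) in pH 7.5 Hepes buffer for 180 min at 37° C, compound in 10 concentrations from 30 µM. Released AMP detected by AMP-Glo luminescence. IC50 normalised to inhibitor-free reaction and 5 µM reference inhibitor.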

ACSS2 = target: T2, ACSS2 (Homo sapiens, UniProt Q9NR19); assay: Cellular assay of 14C acetate incorporation into histones (IC50 ACSS2 cellular histone); assay type: cell-based; conditions: HCT-15 cells
T2 construct: endogenous fatty acid synthesis activity in the human HCT-15 cancer cell line; endogenous in cells; host or cells: HCT-15
Summary of the method: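 Human HCT-15 cells preincubated 1 h with compound (0.25% DMSO final), then pulsed 3 h with 14C-acetate. Histones were acid-extracted (0.2 M HCl, overnight, 4° C) after Triton lysis in sodium-butyrate buffer; incorporated 14C counted by liquid scintillation (CPM) to give IC50.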

T1 sequence (Q9NR19 whole entry): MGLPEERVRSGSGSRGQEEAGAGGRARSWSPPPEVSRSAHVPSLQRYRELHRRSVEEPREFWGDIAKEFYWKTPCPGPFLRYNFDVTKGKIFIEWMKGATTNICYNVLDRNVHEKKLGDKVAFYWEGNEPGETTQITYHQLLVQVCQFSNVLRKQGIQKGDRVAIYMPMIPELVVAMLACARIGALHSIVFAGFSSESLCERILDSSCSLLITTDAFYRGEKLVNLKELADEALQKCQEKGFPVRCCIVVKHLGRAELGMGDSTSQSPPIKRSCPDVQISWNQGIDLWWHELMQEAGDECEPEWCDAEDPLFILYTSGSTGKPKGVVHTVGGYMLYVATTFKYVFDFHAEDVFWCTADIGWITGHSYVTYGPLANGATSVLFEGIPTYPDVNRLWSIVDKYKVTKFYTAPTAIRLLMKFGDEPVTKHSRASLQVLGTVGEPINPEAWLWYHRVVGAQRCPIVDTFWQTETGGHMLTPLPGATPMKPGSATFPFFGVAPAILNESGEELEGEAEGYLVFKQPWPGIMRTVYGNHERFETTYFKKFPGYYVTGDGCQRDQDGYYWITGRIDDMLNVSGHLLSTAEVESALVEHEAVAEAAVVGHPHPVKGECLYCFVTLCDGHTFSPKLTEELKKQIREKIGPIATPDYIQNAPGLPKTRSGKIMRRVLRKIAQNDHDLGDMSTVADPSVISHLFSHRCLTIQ
T2 sequence (Q9NR19 whole entry): as above

| SMILES | MNT (CHO-K1 cells) | IC50 (human rec ACSS2) [nM] | IC50 (ACSS2) [nM] |
| --- | --- | --- | --- |
| CCc1c(C(O)(c2ccccc2)c2ccccn2)nc2cc(OC)c(C(=O)Nc3ncn(CC)n3)cn12 (racemic) [Compound 16, 3-Ethyl-2-(hydroxy-phenyl-pyridin-2-yl-methyl)-7-methoxy-imidazo[1,2-a]pyridine-6-carboxylic acid (1-ethyl-1H-[1,2,4]triazol-3-yl)-amide] | A | 10 to 100 | 1 to 10 |
| CCn1cnc(NC(=O)c2cc3c(nc2OC)nc(C(O)(c2ccccc2F)c2ccc(OC(F)F)cc2F)n3CC)n1 (racemic) [Compound 94, 2-{[4-(difluoromethoxy)-2-fluorophenyl](2-fluorophenyl)hydroxymethyl}-1-ethyl-N-(1-ethyl-1H-1,2,4-triazol-3-yl)-5-methoxy-1H-imidazo[4,5-b]pyridine-6-carboxamide] | A | 1 to 10 | 1 to 10 |
| CCn1cnc(NC(=O)c2cc3c(nc2OC)nc(C(O)(c2ccccc2)c2ccccn2)n3CC)n1 (single isomer, unassigned) [Compound 53, 1-ethyl-N-(1-ethyl-1H-1,2,4-triazol-3-yl)-2-[hydroxy(phenyl)(pyridin-2-yl)methyl]-5-methoxy-1H-imidazo[4,5-b]pyridine-6-carboxamide] | in-conclusive | 1 to 10 | 0.01 to 1 |
| CCc1c(C(O)(c2ccccc2)c2ccccc2)nn2cc(Cl)c(C(=O)Nc3ncn(CC)n3)cc12 [Compound 1, 6-Chloro-3-ethyl-2-(hydroxy-diphenylmethyl)-pyrazolo[1,5-a]pyridine-5-carboxylic acid (1-ethyl-1H-[1,2,4]triazol-3-yl)-amide] | A | 0.01 to 1 | 0.01 to 1 |
| CCc1c(C(O)(c2ccccc2F)c2ccccc2F)nn2cc(Cl)c(C(=O)Nc3ncn(CC)n3)cc12 [Compound 2, 2-[Bis-(2-fluoro-phenyl)-hydroxy-methyl]-6-chloro-3-ethyl-pyrazolo[1,5-a]pyridine-5-carboxylic acid (1-ethyl-1H-[1,2,4]triazol-3-yl)-amide] | A | 1 to 10 | 0.01 to 1 |
| CCc1c(C(O)(c2ccccc2F)c2ccccc2F)nn2cc(C)c(C(=O)Nc3ncn(CC)n3)cc12 [Compound 3, 2-[Bis-(2-fluoro-phenyl)-hydroxy-methyl]-3-ethyl-6-methyl-pyrazolo[1,5-a]pyridine-5-carboxylic acid (1-ethyl-1H-[1,2,4]triazol-3-yl)-amide] | A | 1 to 10 | 1 to 10 |
| CCc1c(C(O)(c2ccccc2F)c2ccccc2F)nn2cc(OC)c(C(=O)Nc3cnn(CC)c3)cc12 [Compound 4, 2-[Bis-(2-fluoro-phenyl)-hydroxy-methyl]-3-ethyl-6-methoxy-pyrazolo[1,5-a]pyridine-5-carboxylic acid (1-ethyl-1H-pyrazol-4-yl)-amide] | A | 10 to 100 | 1 to 10 |
| CCc1c(C(O)(c2ccccc2F)c2ccccc2F)nn2ccc(C(=O)Nc3ncn(CC)n3)cc12 [Compound 5, 2-[Bis-(2-fluoro-phenyl)-hydroxy-methyl]-3-ethyl-pyrazolo[1,5-a]pyridine-5-carboxylic acid (1-ethyl-1H-[1,2,4]triazol-3-yl)-amide] | A | 1 to 10 | 1 to 10 |
| CCc1c(C(O)(c2ccccc2)c2ccccc2)nn2cc(Cl)c(C(=O)Nc3cnn(CC)c3)cc12 [Compound 6, 6-Chloro-3-ethyl-2-(hydroxy-diphenylmethyl)-pyrazolo[1,5-a]pyridine-5-carboxylic acid (1-ethyl-1H-pyrazol-4-yl)-amide] | A | 10 to 100 | 1 to 10 |
| CCc1c(C(O)(c2ccccc2)c2ccccc2)nn2cc(OC)c(C(=O)Nc3cnn(CC)c3)cc12 [Compound 8, 3-Ethyl-2-(hydroxy-diphenyl-methyl)-6-methoxy-pyrazolo[1,5-a]pyridine-5-carboxylic acid (1-ethyl-1H-pyrazol-4-yl)-amide] | A | 10 to 100 | 1 to 10 |
